The values that follow come from ChEMBL document CHEMBL5465560, “Selectivity Literature for EUbOPEN Chemogenomic Library” (2024).

Test [1] addresses T1, Calcium/calmodulin-dependent protein kinase type IV (Homo sapiens) (UniProt Q16566).
T1 sequence (whole entry): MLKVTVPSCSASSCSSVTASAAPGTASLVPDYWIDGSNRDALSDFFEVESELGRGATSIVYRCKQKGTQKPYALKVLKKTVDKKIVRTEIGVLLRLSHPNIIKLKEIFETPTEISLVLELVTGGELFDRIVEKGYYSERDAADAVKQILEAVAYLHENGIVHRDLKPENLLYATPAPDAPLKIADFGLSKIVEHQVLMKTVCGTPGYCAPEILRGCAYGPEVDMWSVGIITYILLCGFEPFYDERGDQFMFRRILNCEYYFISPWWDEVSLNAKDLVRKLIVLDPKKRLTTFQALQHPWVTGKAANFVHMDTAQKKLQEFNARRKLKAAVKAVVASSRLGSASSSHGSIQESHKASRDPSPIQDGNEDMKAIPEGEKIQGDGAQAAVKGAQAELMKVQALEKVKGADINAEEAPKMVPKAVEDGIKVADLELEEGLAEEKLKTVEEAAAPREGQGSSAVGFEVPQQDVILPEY
The settings on record: at 10 µM.

Test [2] addresses Macrophage colony-stimulating factor 1 receptor (Homo sapiens) (UniProt P07333). In words: Selectivity interaction (KinomeScan (DiscoverX)) EUB0000699a CSF1R. To be noted: at 10 µM.
Test [3] has as its target Vascular endothelial growth factor receptor 3 (Homo sapiens, UniProt P35916). The test can be described thus: Selectivity interaction (KinomeScan (DiscoverX)) EUB0000699a FLT4. The settings on record: at 10 µM.
Test [4] deals with T2, Mitogen-activated protein kinase 15 (Homo sapiens) (UniProt Q8TD08).
T2 sequence (whole entry): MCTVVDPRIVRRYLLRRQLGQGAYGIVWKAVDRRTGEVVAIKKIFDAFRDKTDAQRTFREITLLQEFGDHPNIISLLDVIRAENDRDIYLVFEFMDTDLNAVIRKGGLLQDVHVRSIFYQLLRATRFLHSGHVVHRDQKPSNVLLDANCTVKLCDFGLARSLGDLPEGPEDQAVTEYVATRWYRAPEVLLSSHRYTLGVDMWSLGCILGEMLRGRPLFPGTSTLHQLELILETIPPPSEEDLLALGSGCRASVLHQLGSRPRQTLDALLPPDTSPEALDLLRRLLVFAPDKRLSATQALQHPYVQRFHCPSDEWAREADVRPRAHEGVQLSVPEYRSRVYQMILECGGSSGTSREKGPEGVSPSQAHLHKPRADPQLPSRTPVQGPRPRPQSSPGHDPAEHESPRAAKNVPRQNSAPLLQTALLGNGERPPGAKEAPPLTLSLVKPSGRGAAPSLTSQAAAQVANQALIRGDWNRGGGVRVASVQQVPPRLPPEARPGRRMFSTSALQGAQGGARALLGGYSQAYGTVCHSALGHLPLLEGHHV
To be noted: at 10 µM.

Test [5] deals with Serine/threonine-protein kinase 16 (Homo sapiens, UniProt O75716). The test can be described thus: Selectivity interaction (ActivX KiNativ screen (kinase selectivity in THP-1 cell lysates)) EUB0000639a STK16. The settings on record: lysate. Type of test: subcellular.
Serine/threonine-protein kinase 16, sequence (O75716 whole entry): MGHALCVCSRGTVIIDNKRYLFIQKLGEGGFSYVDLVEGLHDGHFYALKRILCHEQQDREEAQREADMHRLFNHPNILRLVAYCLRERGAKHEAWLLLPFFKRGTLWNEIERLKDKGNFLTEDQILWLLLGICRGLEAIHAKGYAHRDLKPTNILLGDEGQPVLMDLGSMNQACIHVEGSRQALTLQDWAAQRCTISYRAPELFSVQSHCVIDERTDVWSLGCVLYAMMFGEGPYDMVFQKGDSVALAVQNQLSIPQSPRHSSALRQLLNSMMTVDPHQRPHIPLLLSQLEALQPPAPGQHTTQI
The target in test [6] is T3, Serine/threonine-protein kinase ULK1 (Homo sapiens) (UniProt O75385).
T3 sequence (whole entry): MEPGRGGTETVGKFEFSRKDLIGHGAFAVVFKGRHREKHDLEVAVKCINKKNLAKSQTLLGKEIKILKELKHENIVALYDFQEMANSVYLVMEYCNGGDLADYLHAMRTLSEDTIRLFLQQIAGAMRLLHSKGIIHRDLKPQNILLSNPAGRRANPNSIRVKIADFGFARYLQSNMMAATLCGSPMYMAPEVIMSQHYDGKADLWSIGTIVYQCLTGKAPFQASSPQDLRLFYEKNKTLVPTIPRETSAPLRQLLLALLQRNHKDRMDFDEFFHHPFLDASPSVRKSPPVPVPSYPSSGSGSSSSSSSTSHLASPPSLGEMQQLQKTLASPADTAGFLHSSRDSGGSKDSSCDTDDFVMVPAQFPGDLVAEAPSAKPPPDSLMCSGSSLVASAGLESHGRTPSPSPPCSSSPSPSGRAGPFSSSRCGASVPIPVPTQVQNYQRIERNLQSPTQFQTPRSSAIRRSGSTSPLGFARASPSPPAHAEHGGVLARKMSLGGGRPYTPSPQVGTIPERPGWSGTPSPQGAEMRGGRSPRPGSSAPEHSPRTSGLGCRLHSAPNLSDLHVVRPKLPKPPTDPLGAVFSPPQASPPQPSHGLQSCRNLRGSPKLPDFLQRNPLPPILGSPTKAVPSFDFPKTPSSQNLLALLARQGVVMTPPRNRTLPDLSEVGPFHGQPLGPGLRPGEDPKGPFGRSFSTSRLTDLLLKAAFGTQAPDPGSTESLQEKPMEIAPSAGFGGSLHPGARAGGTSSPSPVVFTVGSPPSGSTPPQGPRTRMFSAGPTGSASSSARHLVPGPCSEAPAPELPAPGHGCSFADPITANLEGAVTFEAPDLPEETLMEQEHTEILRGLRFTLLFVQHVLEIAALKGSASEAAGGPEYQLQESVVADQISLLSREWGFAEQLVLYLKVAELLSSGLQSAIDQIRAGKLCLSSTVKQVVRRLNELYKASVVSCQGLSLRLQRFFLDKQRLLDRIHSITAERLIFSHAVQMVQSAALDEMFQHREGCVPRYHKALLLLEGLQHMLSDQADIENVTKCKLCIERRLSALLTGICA
In words: Selectivity interaction (ActivX KiNativ screen (kinase selectivity in THP-1 cell lysates)) EUB0000639a ULK1. Type of test: subcellular. The settings on record: lysate, at 0.04 µM.

Test [7] addresses Serine/threonine-protein kinase PRP4 homolog (Homo sapiens) (UniProt Q13523). The test can be described thus: Selectivity interaction (KinomeScan (DiscoverX)) EUB0000655a PRPF4. To be noted: at 10 µM.
Test [8] addresses Casein kinase I isoform gamma-1 (Homo sapiens) (UniProt Q9HCP0). In words: Selectivity interaction (KinomeScan (DiscoverX)) EUB0000229b CSNK1G1. The settings on record: at 10 µM.

Vascular endothelial growth factor receptor 3, sequence (P35916 whole entry): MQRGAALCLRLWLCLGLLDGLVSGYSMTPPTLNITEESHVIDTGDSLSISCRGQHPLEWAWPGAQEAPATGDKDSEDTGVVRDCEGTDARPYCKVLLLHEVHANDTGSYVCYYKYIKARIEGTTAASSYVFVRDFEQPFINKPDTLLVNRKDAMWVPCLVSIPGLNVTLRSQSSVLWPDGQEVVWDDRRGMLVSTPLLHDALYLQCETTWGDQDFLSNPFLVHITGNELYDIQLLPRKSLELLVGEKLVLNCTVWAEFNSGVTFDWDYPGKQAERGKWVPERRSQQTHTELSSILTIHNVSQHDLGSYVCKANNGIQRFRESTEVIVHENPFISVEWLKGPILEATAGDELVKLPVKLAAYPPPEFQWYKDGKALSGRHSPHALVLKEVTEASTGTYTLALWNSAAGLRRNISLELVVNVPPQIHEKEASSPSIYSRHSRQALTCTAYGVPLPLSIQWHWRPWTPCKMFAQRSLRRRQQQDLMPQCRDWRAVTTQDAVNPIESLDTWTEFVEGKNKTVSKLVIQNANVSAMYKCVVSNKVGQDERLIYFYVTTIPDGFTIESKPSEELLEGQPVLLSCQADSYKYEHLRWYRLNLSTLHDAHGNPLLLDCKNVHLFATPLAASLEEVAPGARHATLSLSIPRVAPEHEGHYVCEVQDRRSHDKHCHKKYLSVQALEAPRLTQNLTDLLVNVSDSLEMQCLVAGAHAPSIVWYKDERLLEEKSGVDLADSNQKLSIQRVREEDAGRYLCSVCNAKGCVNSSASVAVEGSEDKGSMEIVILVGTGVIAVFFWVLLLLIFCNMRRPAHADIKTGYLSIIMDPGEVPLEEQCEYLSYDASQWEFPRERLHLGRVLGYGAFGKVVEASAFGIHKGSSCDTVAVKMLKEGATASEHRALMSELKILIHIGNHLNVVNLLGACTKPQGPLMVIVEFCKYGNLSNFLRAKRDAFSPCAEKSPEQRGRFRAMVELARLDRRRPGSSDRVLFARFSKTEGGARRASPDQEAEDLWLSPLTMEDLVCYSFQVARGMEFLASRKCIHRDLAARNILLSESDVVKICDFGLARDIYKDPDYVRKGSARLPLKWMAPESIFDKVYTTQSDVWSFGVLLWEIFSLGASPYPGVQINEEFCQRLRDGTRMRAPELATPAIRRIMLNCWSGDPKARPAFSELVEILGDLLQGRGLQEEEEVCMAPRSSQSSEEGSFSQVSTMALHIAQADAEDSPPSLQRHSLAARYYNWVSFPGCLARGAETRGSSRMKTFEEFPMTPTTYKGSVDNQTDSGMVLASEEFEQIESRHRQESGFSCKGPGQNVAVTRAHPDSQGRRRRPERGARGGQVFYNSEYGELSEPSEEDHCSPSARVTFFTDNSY
Casein kinase I isoform gamma-1 (Homo sapiens), sequence (Q9HCP0 whole entry, looked up, canonical isoform): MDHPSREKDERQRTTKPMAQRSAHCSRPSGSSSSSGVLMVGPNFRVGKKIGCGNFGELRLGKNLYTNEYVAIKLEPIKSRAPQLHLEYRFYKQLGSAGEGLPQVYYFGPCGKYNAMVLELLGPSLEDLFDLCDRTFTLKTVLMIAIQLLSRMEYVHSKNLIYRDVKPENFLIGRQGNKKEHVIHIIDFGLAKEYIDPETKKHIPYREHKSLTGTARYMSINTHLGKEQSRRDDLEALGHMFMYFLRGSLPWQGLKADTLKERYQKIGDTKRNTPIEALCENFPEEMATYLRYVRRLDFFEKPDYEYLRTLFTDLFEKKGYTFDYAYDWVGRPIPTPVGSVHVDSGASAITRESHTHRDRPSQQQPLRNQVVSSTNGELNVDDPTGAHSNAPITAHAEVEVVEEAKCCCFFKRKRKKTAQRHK
Macrophage colony-stimulating factor 1 receptor (Homo sapiens), sequence (P07333 whole entry): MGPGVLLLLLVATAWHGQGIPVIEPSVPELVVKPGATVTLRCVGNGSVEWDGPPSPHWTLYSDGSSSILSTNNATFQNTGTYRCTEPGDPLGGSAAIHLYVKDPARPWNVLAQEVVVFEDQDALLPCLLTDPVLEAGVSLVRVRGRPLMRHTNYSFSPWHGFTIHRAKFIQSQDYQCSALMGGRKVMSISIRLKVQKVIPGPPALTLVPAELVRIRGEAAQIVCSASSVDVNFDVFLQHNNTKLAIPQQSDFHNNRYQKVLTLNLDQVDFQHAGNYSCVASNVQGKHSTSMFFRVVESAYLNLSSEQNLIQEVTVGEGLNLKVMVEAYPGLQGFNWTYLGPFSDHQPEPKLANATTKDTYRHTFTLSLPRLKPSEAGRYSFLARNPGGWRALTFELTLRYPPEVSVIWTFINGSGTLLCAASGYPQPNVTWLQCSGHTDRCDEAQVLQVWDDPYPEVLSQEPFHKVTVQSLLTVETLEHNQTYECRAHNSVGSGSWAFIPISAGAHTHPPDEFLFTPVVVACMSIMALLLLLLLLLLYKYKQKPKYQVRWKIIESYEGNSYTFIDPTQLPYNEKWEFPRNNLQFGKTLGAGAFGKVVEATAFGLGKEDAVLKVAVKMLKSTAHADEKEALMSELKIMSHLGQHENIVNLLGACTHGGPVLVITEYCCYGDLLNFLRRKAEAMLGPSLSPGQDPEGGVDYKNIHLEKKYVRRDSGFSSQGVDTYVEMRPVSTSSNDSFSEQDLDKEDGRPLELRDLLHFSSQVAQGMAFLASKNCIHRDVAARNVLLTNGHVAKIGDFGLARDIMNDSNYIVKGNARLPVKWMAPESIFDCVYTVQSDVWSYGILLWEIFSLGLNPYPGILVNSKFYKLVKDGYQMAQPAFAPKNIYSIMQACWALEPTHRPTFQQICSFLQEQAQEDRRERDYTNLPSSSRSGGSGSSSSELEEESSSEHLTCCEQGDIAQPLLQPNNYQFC
Serine/threonine-protein kinase PRP4 homolog (Homo sapiens), sequence (Q13523 whole entry, canonical isoform): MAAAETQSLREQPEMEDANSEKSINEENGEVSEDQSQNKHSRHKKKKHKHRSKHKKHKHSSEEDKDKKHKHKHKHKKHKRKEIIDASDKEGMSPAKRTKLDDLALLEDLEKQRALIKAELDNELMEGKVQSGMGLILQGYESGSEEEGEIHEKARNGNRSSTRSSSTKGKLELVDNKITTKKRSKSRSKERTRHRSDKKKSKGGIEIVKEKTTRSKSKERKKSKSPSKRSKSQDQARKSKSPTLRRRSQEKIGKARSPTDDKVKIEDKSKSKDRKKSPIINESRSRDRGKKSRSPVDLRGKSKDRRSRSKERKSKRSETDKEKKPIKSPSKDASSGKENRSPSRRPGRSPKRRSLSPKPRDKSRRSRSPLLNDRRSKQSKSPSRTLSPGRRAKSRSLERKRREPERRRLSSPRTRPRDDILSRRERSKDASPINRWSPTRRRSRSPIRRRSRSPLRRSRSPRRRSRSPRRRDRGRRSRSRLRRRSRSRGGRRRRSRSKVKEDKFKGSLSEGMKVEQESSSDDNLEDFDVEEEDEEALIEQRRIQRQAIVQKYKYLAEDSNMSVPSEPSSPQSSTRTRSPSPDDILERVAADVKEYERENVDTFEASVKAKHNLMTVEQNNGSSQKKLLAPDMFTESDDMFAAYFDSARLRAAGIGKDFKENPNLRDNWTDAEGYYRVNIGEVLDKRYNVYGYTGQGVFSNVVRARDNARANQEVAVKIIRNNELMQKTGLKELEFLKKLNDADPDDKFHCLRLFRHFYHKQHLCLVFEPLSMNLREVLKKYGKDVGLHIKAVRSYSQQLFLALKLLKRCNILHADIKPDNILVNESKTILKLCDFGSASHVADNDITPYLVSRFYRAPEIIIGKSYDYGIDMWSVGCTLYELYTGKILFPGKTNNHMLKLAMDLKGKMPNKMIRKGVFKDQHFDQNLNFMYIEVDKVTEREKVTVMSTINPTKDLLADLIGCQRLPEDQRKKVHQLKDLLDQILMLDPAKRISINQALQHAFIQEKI

For the compound `COCC(=O)NC/C=C/c1ccc2ncnc(Nc3ccc(Oc4ccc(C)nc4)c(C)c3)c2c1` [CP-724714], the % of control in test [1] was 86%.
For `CCN(CC)CCCCNc1ncc2cc(-c3cc(OC)cc(OC)c3)c(NC(=O)NC(C)(C)C)nc2n1`, the values for the % of control in test [2], in test [3] and in test [4] were 6.6%, 6% and 100%, respectively.
In the case of `CC[C@@H]1[C@H](F)C(=O)N[C@@H]1COc1nccc2cc(C(N)=O)c(OC)cc12` [ZIMLOVISERTIB], the % of inhibition in test [5] (at 0.01 µM) was 10.7%; in test [5] (at 0.04 µM), 27.8%; in test [5] (at 0.2 µM), 22.2%; in test [5] (at 1 µM), 67.2%; in test [5] (at 5 µM), more than 94%; in test [6], -12.7%.
In turn, `CN(C)CCOc1ccc(-c2nc(-c3ccncc3)c(-c3ccc4c(c3)CC/C4=N\O)[nH]2)cc1` returned a % of control in test [7] of 84%.
For `COc1cc(N(C)c2ccnc3ccc(C(F)(F)F)cc23)cc(OC)c1OC`, the % binding in test [8] was found to be 76%.
